Biological target: T1, rabbit ALOX15 (Oryctolagus cuniculus, UniProt P12530)
T1 sequence (P12530 1-663): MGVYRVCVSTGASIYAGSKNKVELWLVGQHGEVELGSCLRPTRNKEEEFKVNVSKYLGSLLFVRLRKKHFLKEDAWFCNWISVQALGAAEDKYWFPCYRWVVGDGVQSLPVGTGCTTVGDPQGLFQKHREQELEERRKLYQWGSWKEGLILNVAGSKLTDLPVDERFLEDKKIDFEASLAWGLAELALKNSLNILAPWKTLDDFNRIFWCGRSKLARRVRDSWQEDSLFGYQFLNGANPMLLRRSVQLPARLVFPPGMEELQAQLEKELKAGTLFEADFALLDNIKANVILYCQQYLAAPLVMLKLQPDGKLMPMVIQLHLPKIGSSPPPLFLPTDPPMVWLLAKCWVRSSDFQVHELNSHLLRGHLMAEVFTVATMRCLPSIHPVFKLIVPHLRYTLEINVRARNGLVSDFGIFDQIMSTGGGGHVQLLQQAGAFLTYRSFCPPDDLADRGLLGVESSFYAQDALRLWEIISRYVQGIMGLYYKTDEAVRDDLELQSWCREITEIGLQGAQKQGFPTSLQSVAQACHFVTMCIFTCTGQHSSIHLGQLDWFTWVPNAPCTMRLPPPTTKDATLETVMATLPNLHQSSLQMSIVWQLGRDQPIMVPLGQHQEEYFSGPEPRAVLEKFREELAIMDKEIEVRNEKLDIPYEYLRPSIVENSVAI
Assay: Kinetic measurements of LA/AA oxygenation with inhibitor
Format: biochemical
Details: best fit of kinetic data

How did the “mode of inhibition of AA oxygenation” value (AA as substrate) turn out when `CCCCCCCCOC(=O)NS(=O)(=O)Nc1ccc(-c2cc3ccccc3[nH]2)cc1OC` [compound 3, Octyl (N-(4-(1H-indol-2-yl)-2-methoxyphenyl)sulfamoyl)-carbamate] was run?
The value was “uncompetitive mode of inhibition”.

And the “mode of inhibition of LA oxygenation” value (LA as substrate)?
The value was “uncompetitive mode of inhibition”.
